Laboratory results reported in the NIST ThermoML archive (doi:10.1016/j.jct.2015.11.023).

Assays:
[1] = refractive index (Na D-line) (dimensionless); wn = mass fraction of the nth substance listed; conditions: 100 kPa, Liquid, Standard Abbe refractometry
[2] = wn = mass fraction of the nth substance listed; conditions: for surface tension liquid-gas: Maximal bubble pressure; for mass density: 100 kPa, Liquid, Vibrating tube method

CCCC[n+]1ccccc1.N#C[N-]C#N [1-butylpyridinium dicyanamide] + O
Conditions | mass density [kg/m3] | refractive index | surface tension liquid-gas [mN/m]
[1], 303.15 K, w2 = 0.00176 | – | 1.5323 | –
[1], 303.15 K, w2 = 0.00319 | – | 1.5321 | –
[1], 303.15 K, w2 = 0.00477 | – | 1.5319 | –
[1], 303.15 K, w2 = 0.00627 | – | 1.5317 | –
[1], 303.15 K, w2 = 0.0078 | – | 1.5315 | –
[1], 308.15 K, w2 = 0.00176 | – | 1.5306 | –
[1], 308.15 K, w2 = 0.00319 | – | 1.5303 | –
[1], 308.15 K, w2 = 0.00477 | – | 1.5301 | –
[1], 308.15 K, w2 = 0.00627 | – | 1.5298 | –
[1], 308.15 K, w2 = 0.0078 | – | 1.5296 | –
[1], 313.15 K, w2 = 0.00176 | – | 1.5283 | –
[1], 313.15 K, w2 = 0.00319 | – | 1.5281 | –
[1], 313.15 K, w2 = 0.00477 | – | 1.5279 | –
[1], 313.15 K, w2 = 0.00627 | – | 1.5277 | –
[1], 313.15 K, w2 = 0.0078 | – | 1.5275 | –
[1], 318.15 K, w2 = 0.00176 | – | 1.5267 | –
[1], 318.15 K, w2 = 0.00319 | – | 1.5265 | –
[1], 318.15 K, w2 = 0.00477 | – | 1.5262 | –
[1], 318.15 K, w2 = 0.00627 | – | 1.526 | –
[1], 318.15 K, w2 = 0.0078 | – | 1.5258 | –
[1], 323.15 K, w2 = 0.00176 | – | 1.525 | –
[1], 323.15 K, w2 = 0.00319 | – | 1.5248 | –
[1], 323.15 K, w2 = 0.00477 | – | 1.5245 | –
[1], 323.15 K, w2 = 0.00627 | – | 1.5243 | –
[1], 323.15 K, w2 = 0.0078 | – | 1.5241 | –
[1], 328.15 K, w2 = 0.00176 | – | 1.5234 | –
[1], 328.15 K, w2 = 0.00319 | – | 1.5232 | –
[1], 328.15 K, w2 = 0.00477 | – | 1.523 | –
[1], 328.15 K, w2 = 0.00627 | – | 1.5227 | –
[1], 328.15 K, w2 = 0.0078 | – | 1.5225 | –
[1], 333.15 K, w2 = 0.00176 | – | 1.5214 | –
[1], 333.15 K, w2 = 0.00319 | – | 1.5212 | –
[1], 333.15 K, w2 = 0.00477 | – | 1.5209 | –
[1], 333.15 K, w2 = 0.00627 | – | 1.5207 | –
[1], 333.15 K, w2 = 0.0078 | – | 1.5204 | –
[1], 338.15 K, w2 = 0.00176 | – | 1.5199 | –
[1], 338.15 K, w2 = 0.00319 | – | 1.5197 | –
[1], 338.15 K, w2 = 0.00477 | – | 1.5194 | –
[1], 338.15 K, w2 = 0.00627 | – | 1.5192 | –
[1], 338.15 K, w2 = 0.0078 | – | 1.5189 | –
[2], 303.15 K, w2 = 0.00123 | 1065.65 | – | –
[2], 303.15 K, w2 = 0.00176 | – | – | 55.8
[2], 303.15 K, w2 = 0.00269 | 1065.52 | – | –
[2], 303.15 K, w2 = 0.0033 | – | – | 56.2
[2], 303.15 K, w2 = 0.00417 | 1065.37 | – | –
[2], 303.15 K, w2 = 0.00478 | – | – | 56.5
[2], 303.15 K, w2 = 0.00567 | 1065.24 | – | –
[2], 303.15 K, w2 = 0.00628 | – | – | 56.8
[2], 303.15 K, w2 = 0.00714 | 1065.12 | – | –
[2], 303.15 K, w2 = 0.0078 | – | – | 57.1
[2], 308.15 K, w2 = 0.00123 | 1062.58 | – | –
[2], 308.15 K, w2 = 0.00176 | – | – | 55.5
[2], 308.15 K, w2 = 0.00269 | 1062.45 | – | –
[2], 308.15 K, w2 = 0.0033 | – | – | 55.9
[2], 308.15 K, w2 = 0.00417 | 1062.32 | – | –
[2], 308.15 K, w2 = 0.00478 | – | – | 56.2
[2], 308.15 K, w2 = 0.00567 | 1062.16 | – | –
[2], 308.15 K, w2 = 0.00628 | – | – | 56.5
[2], 308.15 K, w2 = 0.00714 | 1062.04 | – | –
[2], 308.15 K, w2 = 0.0078 | – | – | 56.8
[2], 313.15 K, w2 = 0.00123 | 1059.54 | – | –
[2], 313.15 K, w2 = 0.00176 | – | – | 55.2
[2], 313.15 K, w2 = 0.00269 | 1059.41 | – | –
[2], 313.15 K, w2 = 0.0033 | – | – | 55.6
[2], 313.15 K, w2 = 0.00417 | 1059.23 | – | –
[2], 313.15 K, w2 = 0.00478 | – | – | 55.9
[2], 313.15 K, w2 = 0.00567 | 1059.11 | – | –
[2], 313.15 K, w2 = 0.00628 | – | – | 56.2
[2], 313.15 K, w2 = 0.00714 | 1058.97 | – | –
[2], 313.15 K, w2 = 0.0078 | – | – | 56.5
[2], 318.15 K, w2 = 0.00123 | 1056.51 | – | –
[2], 318.15 K, w2 = 0.00176 | – | – | 54.9
[2], 318.15 K, w2 = 0.00269 | 1056.38 | – | –
[2], 318.15 K, w2 = 0.0033 | – | – | 55.2
[2], 318.15 K, w2 = 0.00417 | 1056.24 | – | –
[2], 318.15 K, w2 = 0.00478 | – | – | 55.5
[2], 318.15 K, w2 = 0.00567 | 1056.07 | – | –
[2], 318.15 K, w2 = 0.00628 | – | – | 55.8
[2], 318.15 K, w2 = 0.00714 | 1055.94 | – | –
[2], 318.15 K, w2 = 0.0078 | – | – | 56.2
[2], 323.15 K, w2 = 0.00123 | 1053.5 | – | –
[2], 323.15 K, w2 = 0.00176 | – | – | 54.6
[2], 323.15 K, w2 = 0.00269 | 1053.36 | – | –
[2], 323.15 K, w2 = 0.0033 | – | – | 54.9
[2], 323.15 K, w2 = 0.00417 | 1053.23 | – | –
[2], 323.15 K, w2 = 0.00478 | – | – | 55.2
[2], 323.15 K, w2 = 0.00567 | 1053.04 | – | –
[2], 323.15 K, w2 = 0.00628 | – | – | 55.5
[2], 323.15 K, w2 = 0.00714 | 1052.91 | – | –
[2], 323.15 K, w2 = 0.0078 | – | – | 55.8
[2], 328.15 K, w2 = 0.00123 | 1050.5 | – | –
[2], 328.15 K, w2 = 0.00176 | – | – | 54.3
[2], 328.15 K, w2 = 0.00269 | 1050.36 | – | –
[2], 328.15 K, w2 = 0.0033 | – | – | 54.6
[2], 328.15 K, w2 = 0.00417 | 1050.22 | – | –
[2], 328.15 K, w2 = 0.00478 | – | – | 54.9
[2], 328.15 K, w2 = 0.00567 | 1050.05 | – | –
[2], 328.15 K, w2 = 0.00628 | – | – | 55.2
[2], 328.15 K, w2 = 0.00714 | 1049.92 | – | –
[2], 328.15 K, w2 = 0.0078 | – | – | 55.5
[2], 333.15 K, w2 = 0.00123 | 1047.53 | – | –
[2], 333.15 K, w2 = 0.00176 | – | – | 54
[2], 333.15 K, w2 = 0.00269 | 1047.4 | – | –
[2], 333.15 K, w2 = 0.0033 | – | – | 54.3
[2], 333.15 K, w2 = 0.00417 | 1047.21 | – | –
[2], 333.15 K, w2 = 0.00478 | – | – | 54.6
[2], 333.15 K, w2 = 0.00567 | 1047.07 | – | –
[2], 333.15 K, w2 = 0.00628 | – | – | 54.9
[2], 333.15 K, w2 = 0.00714 | 1046.94 | – | –
[2], 333.15 K, w2 = 0.0078 | – | – | 55.2
[2], 338.15 K, w2 = 0.00123 | 1044.55 | – | –
[2], 338.15 K, w2 = 0.00176 | – | – | 53.7
[2], 338.15 K, w2 = 0.00269 | 1044.42 | – | –
[2], 338.15 K, w2 = 0.0033 | – | – | 54
[2], 338.15 K, w2 = 0.00417 | 1044.27 | – | –
[2], 338.15 K, w2 = 0.00478 | – | – | 54.3
[2], 338.15 K, w2 = 0.00567 | 1044.09 | – | –
[2], 338.15 K, w2 = 0.00628 | – | – | 54.5
[2], 338.15 K, w2 = 0.00714 | 1043.94 | – | –
[2], 338.15 K, w2 = 0.0078 | – | – | 54.8
